Source: PubChem BioAssay AID248 (DTP/NCI, 2004)
“And” between values parts separate entries of the source, which are not always exact repeats. Equal entries are not always repeated. Toxic doses and inconclusive results are not listed.

Test system: L1210 leukemia ip in BDF1 mice, survival T/C
Assay: NCI In Vivo Anticancer Drug Screen. Data for tumor model L1210 Leukemia (intraperitoneal) in B6D2F1 (BDF1) mice
Settings: endpoint: mean survival time, higher = longer survival
Procedure, shortened: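 Survival endpoint. Drug-treated group vs vehicle group, expressed as T divided by C. Tumor passaged by transplantation.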

[1] = dose: 100.0 mg/kg/injection, schedule: Q01DX001 (ip), vehicle: saline
[2] = dose: 100.0 mg/kg/injection, schedule: Q04DX003 (ip), vehicle: saline with Tween-80
[3] = dose: 200.0 mg/kg/injection, schedule: Q01DX001 (ip), vehicle: saline
[4] = dose: 200.0 mg/kg/injection, schedule: Q04DX003 (ip), vehicle: saline with Tween-80
[5] = dose: 400.0 mg/kg/injection, schedule: Q01DX001 (ip), vehicle: saline
[6] = dose: 400.0 mg/kg/injection, schedule: Q04DX003 (ip), vehicle: saline with Tween-80
[7] = dose: 100.0 mg/kg/injection, schedule: Q04DX002 (ip), vehicle: Klucel (hydroxypropylcellulose) (HPC)
[8] = dose: 200.0 mg/kg/injection, schedule: Q04DX002 (ip), vehicle: Klucel (hydroxypropylcellulose) (HPC)
[9] = dose: 100.0 mg/kg/injection, schedule: Q01DX009 (ip), vehicle: saline with Tween-80
[10] = dose: 100.0 mg/kg/injection, schedule: Q04DX002 (ip), vehicle: saline with Tween-80
[11] = dose: 200.0 mg/kg/injection, schedule: Q01DX009 (ip), vehicle: saline with Tween-80
[12] = dose: 200.0 mg/kg/injection, schedule: Q04DX002 (ip), vehicle: saline with Tween-80
[13] = dose: 400.0 mg/kg/injection, schedule: Q01DX009 (ip), vehicle: saline with Tween-80
[14] = dose: 400.0 mg/kg/injection, schedule: Q04DX002 (ip), vehicle: saline with Tween-80
[15] = dose: 100.0 mg/kg/injection, schedule: Q01DX009 (ip), vehicle: Klucel (hydroxypropylcellulose) (HPC)
[16] = dose: 200.0 mg/kg/injection, schedule: Q01DX009 (ip), vehicle: Klucel (hydroxypropylcellulose) (HPC)
[17] = dose: 400.0 mg/kg/injection, schedule: Q01DX009 (ip), vehicle: Klucel (hydroxypropylcellulose) (HPC)
[18] = dose: 100.0 mg/kg/injection, schedule: Q04DX003 (ip), vehicle: Klucel (hydroxypropylcellulose) (HPC)
[19] = dose: 200.0 mg/kg/injection, schedule: Q04DX003 (ip), vehicle: Klucel (hydroxypropylcellulose) (HPC)
[20] = dose: 400.0 mg/kg/injection, schedule: Q04DX003 (ip), vehicle: Klucel (hydroxypropylcellulose) (HPC)

With Cc1nc(N)sc1S(=O)(=O)F the T/C [1] was 96 % of control, the T/C [2] was 89 % of control and the T/C [3] was 97 % of control. The T/C [4] was 97 % of control, the T/C [5] was 102 % of control and the T/C [6] was 97 % of control.
With COc1ccc(Cl)c(C(=O)O)c1 the T/C [7] was 114 % of control, the T/C [8] was 114 % of control and the T/C (dose: 400.0 mg/kg/injection, schedule: Q04DX002 (ip), vehicle: Klucel (hydroxypropylcellulose) (HPC)) was 103 % of control.
With CC(=O)O[C@H]1CCCC[C@@H]1NC(=O)N(CCCl)N=O the T/C (dose: 4.4 mg/kg/injection, schedule: Q01DX001 (ip), vehicle: carboxymethylcellulose (CMC)) was 118 % of control, the T/C (dose: 6.7 mg/kg/injection, schedule: Q01DX001 (ip), vehicle: carboxymethylcellulose (CMC)) was 175 % of control and the T/C (dose: 10.0 mg/kg/injection, schedule: Q01DX001 (ip), vehicle: carboxymethylcellulose (CMC)) was 194 % of control. For the same compound, the T/C (dose: 15.0 mg/kg/injection, schedule: Q01DX001 (ip), vehicle: carboxymethylcellulose (CMC)) was 313 % of control and 338 % of control, the T/C (dose: 27.0 mg/kg/injection, schedule: Q01DX001 (ip), vehicle: carboxymethylcellulose (CMC)) was 446 % of control and the T/C (dose: 40.0 mg/kg/injection, schedule: Q01DX001 (ip), vehicle: carboxymethylcellulose (CMC)) was 404 % of control. The T/C (dose: 60.0 mg/kg/injection, schedule: Q01DX001 (ip), vehicle: carboxymethylcellulose (CMC)) was 196 % of control.
In the case of O=C(Sc1cccc(Br)c1)c1ccccc1, the T/C (dose: 100.0 mg/kg/injection, schedule: Q01DX001 (ip), vehicle: other) is reported as 100 % of control, the T/C (dose: 200.0 mg/kg/injection, schedule: Q01DX001 (ip), vehicle: other) is reported as 95 % of control and the T/C (dose: 400.0 mg/kg/injection, schedule: Q01DX001 (ip), vehicle: other) is reported as 94 % of control.
With COc1cc([N+](=O)[O-])ccc1NC(=O)N(C)C1CCCCC1 the T/C (dose: 100.0 mg/kg/injection, schedule: Q01DX001 (ip), vehicle: saline with Tween-80) was 103 % of control, the T/C [9] was 98 % of control and 91 % of control and the T/C [10] was 99 % of control and 105 % of control. The T/C (dose: 200.0 mg/kg/injection, schedule: Q01DX001 (ip), vehicle: saline with Tween-80) was 100 % of control, the T/C [11] was 92 % of control and 96 % of control and the T/C [12] was 94 % of control and 86 % of control. For the same compound, the T/C (dose: 400.0 mg/kg/injection, schedule: Q01DX001 (ip), vehicle: saline with Tween-80) was 94 % of control, the T/C [13] was 94 % of control and 98 % of control and the T/C [14] was 94 % of control and 89 % of control.
C1=C(c2ccccc2)N(C2CCCCC2)C(c2ccccc2)=CN1Cc1ccccc1 was tested, and the T/C [7] was 92 % of control and the T/C [8] was 92 % of control.
C=CCOC(=O)Nc1cccc(O)c1 was tested, and the T/C [10] was 106 % of control, the T/C [12] was 110 % of control and the T/C [14] was 103 % of control.
In the case of CC(=O)C(C)=O, the T/C [2] is reported as 95 % of control, the T/C [4] is reported as 101 % of control and the T/C [6] is reported as 106 % of control.
CN(C)N=Nc1ccccc1I was tested, and the T/C [15] was 103 % of control, the T/C [16] was 104 % of control and 105 % of control and the T/C [17] was 113 % of control and 116 % of control. For the same compound, the T/C (dose: 600.0 mg/kg/injection, schedule: Q01DX009 (ip), vehicle: Klucel (hydroxypropylcellulose) (HPC)) was 115 % of control.
For Cc1ccccc1Nc1ncnc2c1cnn2-c1ccccc1, the T/C [1] was 102 % of control, the T/C [3] was 105 % of control and the T/C [5] was 115 % of control.
With CN(C)CCCN1CCC2(CC[Si](C)(C)CC2)C1 the T/C [1] was 94 % of control.
In the case of CC1(C)OC2COC(CN(N=O)C(N)=O)C2O1 (configuration not stated), the T/C (dose: 75.0 mg/kg/injection, schedule: Q01DX001 (ip), vehicle: saline) is reported as 122 % of control.
For O=C(C=Nc1ccc([N+](=O)[O-])cc1)c1c2ccccc2cc2ccccc12, the T/C (dose: 100.0 mg/kg/injection, schedule: Q01DX001 (ip), vehicle: Klucel (hydroxypropylcellulose) (HPC)) was 107 % of control, the T/C (dose: 200.0 mg/kg/injection, schedule: Q01DX001 (ip), vehicle: Klucel (hydroxypropylcellulose) (HPC)) was 102 % of control and the T/C (dose: 400.0 mg/kg/injection, schedule: Q01DX001 (ip), vehicle: Klucel (hydroxypropylcellulose) (HPC)) was 106 % of control.
With COC(=O)C1CC2(CNc3ccccc32)CN1C (configuration not stated) the T/C [18] was 90 % of control, the T/C [19] was 89 % of control and the T/C [20] was 89 % of control.
With CC(C)c1ccc(/C=C/C(=O)c2ccc(F)cc2)cc1 the T/C [9] was 90 % of control, the T/C [10] was 97 % of control and the T/C [11] was 90 % of control. For the same compound, the T/C [12] was 86 % of control, the T/C [13] was 93 % of control and the T/C [14] was 97 % of control.
c1ccn(-c2nccs2)c1 was tested, and the T/C [2] was 103 % of control and the T/C [4] was 113 % of control.
In the case of CC(=O)OC1C(OC(C)=O)C(OS(=O)(=O)c2ccc(C)cc2)C(OC(C)=O)C(OS(=O)(=O)c2ccc(C)cc2)C1OC(C)=O (configuration not stated), the T/C [2] is reported as 97 % of control, the T/C [4] is reported as 92 % of control and the T/C [6] is reported as 95 % of control.
CNCCN(C)CCN(C)Cc1ccc(OC)cc1 was tested, and the T/C (dose: 25.0 mg/kg/injection, schedule: Q01DX009 (ip), vehicle: water) was 105 % of control, the T/C (dose: 50.0 mg/kg/injection, schedule: Q01DX009 (ip), vehicle: water) was 102 % of control and the T/C (dose: 100.0 mg/kg/injection, schedule: Q01DX009 (ip), vehicle: water) was 100 % of control. The T/C (dose: 200.0 mg/kg/injection, schedule: Q01DX009 (ip), vehicle: water) was 107 % of control.
In the case of COC1CCC2(C)C3CCC4C(=CCC5C(C)(C)C(=O)CCC45C)CC3(C)CCC2C1(C)C (configuration not stated), the T/C (dose: 75.0 mg/kg/injection, schedule: Q01DX001 (ip), vehicle: carboxymethylcellulose (CMC)) is reported as 105 % of control, the T/C (dose: 150.0 mg/kg/injection, schedule: Q01DX001 (ip), vehicle: carboxymethylcellulose (CMC)) is reported as 110 % of control and the T/C (dose: 300.0 mg/kg/injection, schedule: Q01DX001 (ip), vehicle: carboxymethylcellulose (CMC)) is reported as 104 % of control.
COC(=O)c1ccc(Cl)c(Cl)c1 was tested, and the T/C (dose: 25.0 mg/kg/injection, schedule: Q01DX009 (ip), vehicle: saline with Tween-80) was 110 % of control, the T/C (dose: 50.0 mg/kg/injection, schedule: Q01DX009 (ip), vehicle: saline with Tween-80) was 104 % of control and the T/C [9] was 107 % of control. The T/C [11] was 100 % of control and the T/C [13] was 102 % of control.
For CC(Cc1ccccc1)NCCc1c2ccccc2nc2ccccc12 (configuration not stated), the T/C (dose: 12.5 mg/kg/injection, schedule: Q01DX009 (ip), vehicle: Klucel (hydroxypropylcellulose) (HPC)) was 101 % of control, the T/C (dose: 25.0 mg/kg/injection, schedule: Q01DX009 (ip), vehicle: Klucel (hydroxypropylcellulose) (HPC)) was 102 % of control and the T/C (dose: 50.0 mg/kg/injection, schedule: Q01DX009 (ip), vehicle: Klucel (hydroxypropylcellulose) (HPC)) was 98 % of control. The T/C [15] was 104 % of control and the T/C [16] was 91 % of control.
In the case of CC(=O)NC(C=O)C(OC(C)=O)C(OC(C)=O)C(COC(C)=O)OC(C)=O (configuration not stated), the T/C [10] is reported as 100 % of control, the T/C [12] is reported as 107 % of control and the T/C [14] is reported as 96 % of control.
For Nc1ncccc1[N+](=O)[O-], the T/C [9] was 109 % of control, the T/C [11] was 98 % of control and the T/C [13] was 112 % of control.
For Nc1ncc(CNc2ccc(C(=O)NC(CCC(=O)O)C(=O)O)cc2)c(N)n1 (configuration not stated), the T/C (dose: 100.0 mg/kg/injection, schedule: Q01DX001 (ip), vehicle: carboxymethylcellulose (CMC)) was 98 % of control, the T/C (dose: 200.0 mg/kg/injection, schedule: Q01DX001 (ip), vehicle: carboxymethylcellulose (CMC)) was 96 % of control and the T/C (dose: 400.0 mg/kg/injection, schedule: Q01DX001 (ip), vehicle: carboxymethylcellulose (CMC)) was 98 % of control.
C#CCOCC1CN(c2ccccc2)C(=O)O1 (configuration not stated) was tested, and the T/C [15] was 100 % of control, the T/C [18] was 101 % of control and the T/C [16] was 100 % of control. The T/C [19] was 92 % of control, the T/C [17] was 91 % of control and the T/C [20] was 103 % of control.
In the case of O=[N+]([O-])c1ccc(C=Nc2cc(Cl)ccc2Cl)s1, the T/C [2] is reported as 98 % of control and the T/C [4] is reported as 88 % of control.
CCCCCCCCCCOC(=O)CCN1CC1 was tested, and the T/C [2] was 109 % of control and the T/C [4] was 96 % of control.
In the case of CCOC(CN(Cc1ccccc1)CC(OCC)OCC)OCC, the T/C (dose: 50.0 mg/kg/injection, schedule: Q04DX002 (ip), vehicle: saline with Tween-80) is reported as 100 % of control, the T/C [10] is reported as 97 % of control and 100 % of control and the T/C [12] is reported as 92 % of control. For the same compound, the T/C [14] was 91 % of control.
